Values of other authors in US4975422A, “Angiogenesis inhibitor” (Kureha Kagaku Kogyo Kabushiki Kaisha, priority 1988, dated 1990).

Conditions: oral; species not stated

COc1ccc2c(c1)c(CC(=O)O)c(C)n2C(=O)c1ccc(Cl)cc1 [indomethacin]
LD50: 50 mg/kg
